Data set [1] deals with T1, Dual specificity tyrosine-phosphorylation-regulated kinase 1A (Homo sapiens, UniProt Q13627). The data set can be described thus: Inhibition of DYRK1A (unknown origin) autophosphorylation.
In data set [2] the target is Dual specificity tyrosine-phosphorylation-regulated kinase 1B (Homo sapiens, UniProt Q9Y463). The data set can be described thus: Inhibition of DYRK1B (unknown origin).
In data set [3] the target is T1, Dual specificity tyrosine-phosphorylation-regulated kinase 1A. Nature of the data set: Inhibition of DYRK1A (unknown origin).
For data set [4] the target is unchanged. Nature of the data set: Binding affinity to DYRK1A (unknown origin) assessed as inhibition constant.
Data set [5] relates to CCN1/C(=C/C(C)=O)Sc2ccc(O)cc21. The data set can be described thus: Competitive inhibition of DYRK1A (unknown origin) assessed as michaelis-constant (Km). Conditions: Homo sapiens.
Data set [6] deals with T1, Dual specificity tyrosine-phosphorylation-regulated kinase 1A. Nature of the data set: Inhibition of DYRK1A (unknown origin) in presence of ATP.
Data set [7] has as its target T2, Dual specificity tyrosine-phosphorylation-regulated kinase 2 (Homo sapiens, UniProt Q92630).
T2 sequence (Q92630 whole entry): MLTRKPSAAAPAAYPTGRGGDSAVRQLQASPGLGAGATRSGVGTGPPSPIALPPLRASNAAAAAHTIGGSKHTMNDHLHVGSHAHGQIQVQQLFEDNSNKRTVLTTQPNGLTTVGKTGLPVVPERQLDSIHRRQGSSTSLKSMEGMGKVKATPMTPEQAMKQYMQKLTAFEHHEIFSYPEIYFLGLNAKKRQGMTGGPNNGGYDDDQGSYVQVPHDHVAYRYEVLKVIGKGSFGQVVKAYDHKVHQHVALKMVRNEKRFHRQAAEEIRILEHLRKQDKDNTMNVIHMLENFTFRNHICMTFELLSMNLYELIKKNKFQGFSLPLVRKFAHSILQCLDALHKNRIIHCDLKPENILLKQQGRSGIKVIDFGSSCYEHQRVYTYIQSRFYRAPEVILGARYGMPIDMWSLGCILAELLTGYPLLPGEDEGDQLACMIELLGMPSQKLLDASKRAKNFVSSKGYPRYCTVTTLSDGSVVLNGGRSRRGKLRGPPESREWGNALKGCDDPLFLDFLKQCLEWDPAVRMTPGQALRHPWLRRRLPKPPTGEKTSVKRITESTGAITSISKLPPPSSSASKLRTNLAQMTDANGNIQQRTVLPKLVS
Nature of the data set: Inhibition of DYRK2 (unknown origin).

Data set [8] concerns the target Acetylcholinesterase (Homo sapiens, UniProt P22303). Nature of the data set: Inhibition of AChE (unknown origin).
Data set [9] addresses T3, Dual specificity tyrosine-phosphorylation-regulated kinase 2 (Homo sapiens) (UniProt Q92630).
T3 sequence (whole entry): T2 sequence (Q92630 whole entry)
The data set can be described thus: Inhibition of DYRK2 (unknown origin) at 10 uM relative to control.

Data set [10] deals with T4, Dual specificity tyrosine-phosphorylation-regulated kinase 3 (Homo sapiens) (UniProt O43781).
T4 sequence (whole entry): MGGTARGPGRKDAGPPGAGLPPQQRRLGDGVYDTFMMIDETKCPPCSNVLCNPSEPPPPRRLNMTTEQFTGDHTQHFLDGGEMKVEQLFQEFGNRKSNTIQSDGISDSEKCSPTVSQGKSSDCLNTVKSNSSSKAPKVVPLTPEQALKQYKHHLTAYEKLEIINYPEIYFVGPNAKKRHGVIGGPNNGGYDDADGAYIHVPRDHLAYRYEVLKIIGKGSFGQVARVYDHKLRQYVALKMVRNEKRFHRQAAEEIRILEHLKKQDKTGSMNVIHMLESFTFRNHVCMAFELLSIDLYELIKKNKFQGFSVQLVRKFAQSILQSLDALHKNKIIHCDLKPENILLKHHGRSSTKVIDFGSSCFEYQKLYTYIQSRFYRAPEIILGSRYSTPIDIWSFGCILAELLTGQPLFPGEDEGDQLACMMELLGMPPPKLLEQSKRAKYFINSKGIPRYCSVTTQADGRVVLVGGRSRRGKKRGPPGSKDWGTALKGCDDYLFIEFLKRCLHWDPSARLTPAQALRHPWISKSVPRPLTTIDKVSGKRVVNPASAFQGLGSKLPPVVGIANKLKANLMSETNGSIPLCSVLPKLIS
Nature of the data set: Inhibition of DYRK3 (unknown origin) at 10 uM relative to control.

This note sets out measurements from ChEMBL document CHEMBL5252550, “DYRK1A kinase inhibition with emphasis on neurodegeneration: A comprehensive evolution story-cum-perspective” (Eur J Med Chem, 2018).

Chain of Dual specificity tyrosine-phosphorylation-regulated kinase 1B (Q9Y463 whole entry): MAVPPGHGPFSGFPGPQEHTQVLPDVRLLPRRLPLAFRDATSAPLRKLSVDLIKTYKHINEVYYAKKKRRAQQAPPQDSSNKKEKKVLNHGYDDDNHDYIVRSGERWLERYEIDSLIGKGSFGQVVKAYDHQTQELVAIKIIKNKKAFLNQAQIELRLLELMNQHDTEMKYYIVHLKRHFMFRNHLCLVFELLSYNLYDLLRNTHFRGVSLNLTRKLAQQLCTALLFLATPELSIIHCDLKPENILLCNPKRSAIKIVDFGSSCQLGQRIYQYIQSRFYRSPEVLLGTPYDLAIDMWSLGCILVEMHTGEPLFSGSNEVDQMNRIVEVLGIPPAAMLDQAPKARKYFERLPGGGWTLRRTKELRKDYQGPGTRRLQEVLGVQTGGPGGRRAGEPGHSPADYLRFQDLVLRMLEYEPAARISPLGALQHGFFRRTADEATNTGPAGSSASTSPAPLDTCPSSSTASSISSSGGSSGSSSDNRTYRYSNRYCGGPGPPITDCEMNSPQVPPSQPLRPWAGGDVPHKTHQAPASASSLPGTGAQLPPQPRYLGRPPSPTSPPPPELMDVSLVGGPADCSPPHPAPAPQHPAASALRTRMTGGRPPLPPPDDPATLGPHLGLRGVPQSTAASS
Chain of Acetylcholinesterase (P22303 whole entry): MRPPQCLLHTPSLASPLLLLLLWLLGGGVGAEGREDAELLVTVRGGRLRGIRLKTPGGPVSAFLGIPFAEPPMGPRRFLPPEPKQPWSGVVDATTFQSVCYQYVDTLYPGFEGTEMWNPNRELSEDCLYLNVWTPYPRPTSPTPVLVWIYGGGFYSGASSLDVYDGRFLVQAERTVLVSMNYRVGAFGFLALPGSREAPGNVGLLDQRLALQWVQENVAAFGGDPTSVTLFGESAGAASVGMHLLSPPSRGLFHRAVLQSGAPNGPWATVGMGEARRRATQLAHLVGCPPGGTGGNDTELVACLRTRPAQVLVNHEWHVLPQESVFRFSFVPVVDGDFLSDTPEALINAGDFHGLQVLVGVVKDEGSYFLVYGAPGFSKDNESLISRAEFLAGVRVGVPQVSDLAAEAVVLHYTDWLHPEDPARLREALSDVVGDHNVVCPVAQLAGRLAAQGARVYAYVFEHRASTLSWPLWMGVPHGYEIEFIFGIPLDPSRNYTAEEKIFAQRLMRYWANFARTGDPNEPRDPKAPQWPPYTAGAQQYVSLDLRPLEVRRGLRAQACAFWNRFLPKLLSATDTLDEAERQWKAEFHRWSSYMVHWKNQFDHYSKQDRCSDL

On to `COc1cccc(NC(=O)Nc2nnc(-c3ccncc3)s2)c1`, for which, in [1], inhibition was half-maximal at 2500 nM (IC50).

In turn, `COC(=N)c1nc2ccc3ncnc(Nc4ccc(Cl)cc4Cl)c3c2s1` displayed a 50% inhibitory concentration (IC50) in data set [2] of 280 nM.

`CCC(=O)O[C@@H](C/C=C(\C)C(=O)OC)[C@H](C(=O)OC)[C@@H](OC(C)=O)[C@@H](C[C@H](C)[C@H](OC(=O)CC(C)C)[C@@H]1C[C@H](C)C[C@]2(C[C@H](C)C[C@](CC(C)=O)(OC(C)=O)O2)O1)OC(=O)CC(C)C`: the IC50 in data set [3] is greater than 10000 nM.

On to `CCC(=O)O[C@@H](C/C=C(\C)C(=O)OC)[C@H](C(=O)OC)[C@@H](OC(C)=O)[C@@H](C[C@H](C)[C@H](OC(=O)CC(C)C)[C@@H]1C[C@H](C)C[C@]2(C[C@H](C)C[C@@](O)(CC(C)=O)O2)O1)OC(=O)CC(C)C`, for which the IC50 in data set [3] was greater than 10000 nM.

Regarding `O=C1c2ccc(O)c(O)c2C(=O)c2c(O)ccc(O)c21` [QUINALIZARIN], the Ki in data set [4] was 5850 nM.

Take `N=C1NC(=O)/C(=C/c2ccc3c(c2)CCO3)S1`: in data set [3], inhibition was half-maximal at 7.9 nM (IC50).

Turning to “Dual specificity tyrosine-phosphorylation-regulated kinase 1A (Homo sapiens) (from UniProt Q13627)”, the Km in [5] was found to be 37 µM.

In [1], `COc1cc(/C=C2\C(=O)NN(c3ccc(Cl)c(Cl)c3)C2=O)ccc1O` showed an IC50 of 50000 nM.

For the compound `Cc1cc(=O)oc2cc3c([N+](=O)[O-])c(O)ccc3cc12`, the IC50 in [6] is 15000 nM.

For the compound `COC(=N)c1nc2ccc3ncnc(Nc4ccc(Br)cc4F)c3c2s1`, the IC50 in data set [2] was determined as 220 nM.

On to `CN1CCc2cc3c(c4c2C1Cc1ccccc1-4)OCO3` (stereo not drawn) [ROEMERINE], for which it took 15000 nM to reach half-maximal inhibition in data set [3] (IC50).

With `COc1ccc2c(c1)[nH]c1c(C)nccc12` [HARMINE], the IC50 is 1900 nM in data set [7] and 11300 nM in data set [8].

As for `Cc1cc(=O)oc2cc3cc(O)ccc3cc12`, in data set [6], the IC50 was 600 nM.

In the case of `CO[C@H]1[C@H](O)[C@@H](O)[C@H](n2c3c(Cl)cccc3c3c4c(c5c6cccc(Cl)c6[nH]c5c32)C(=O)NC4=O)O[C@@H]1CO` [REBECCAMYCIN], the IC50 in data set [3] came out at 19 nM.

In data set [3], `CCOc1cc(/C=C2\SC(=S)NC2=O)ccc1OC` showed an IC50 of 60.2 nM.

`CCN1/C(=C/C(C)=O)Sc2ccc(O)cc21`: the inhibition in data set [9] and in [10] was greater than 90% in each case.

What is called IC50 is the concentration that inhibits the measured activity by half. One may read the Ki as a dissociation constant, usually derived from enzyme kinetics or from competition with a known ligand. Usually Km stands for the substrate concentration at which the rate is half of its maximum. Broadly, the inhibition is the share of the control response that was lost under treatment. Low readings indicate a weak effect, high ones a strong effect.
